Assay results from US10501493B2, “Broad spectrum antibiotics” (priority 2011, dated 2019).
≈ marks a conversion by molar mass, not a printed value.

Tests used:
[1] = test system: E. coli MIG1655 LepB(P84L); experiment: In vitro antimicrobial activity, MIC by broth micro-dilution; format: cell-based; settings: Escherichia coli
Summary of the method: (§1)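 CLSI broth micro-dilution MIC against two-fold serial compound dilutions. Inoculum came from colonies grown 24 h at 35° C. or 28° C., suspended in cation-adjusted Mueller Hinton broth at 1*10^7 CFU/ml, of which 5 μl was added per 100 μl well. LepB(P84L) is a proline-mutant SPase strain with heightened arylomycin susceptibility.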

[2] = test system: P. aeruginosa PA01 LepB(P84L); experiment: as above; format: cell-based; settings: Pseudomonas aeruginosa
Summary of the method: as §1

[3] = test system: S. aureus NCTC-8325 SpsB(P295); experiment: as above; format: cell-based; settings: Staphylococcus aureus, NCTC8325
[4] = test system: S. epidermidis RP62A SpsIB(S29P); experiment: as above; format: cell-based; settings: Staphylococcus epidermidis
[5] = test system: S. epidermidis RP62A SpsIB(S31P); experiment: as above; format: cell-based; settings: Staphylococcus epidermidis
S. epidermidis RP62A = experiment: as above; format: cell-based; settings: Staphylococcus epidermidis; S. epidermidis RP62A; read-out: MIC
S. pneumoniae D39 = experiment: as above; format: cell-based; settings: Streptococcus pneumoniae; S. pneumoniae D39; read-out: MIC
E. coli SPase = biological target: T1, E. coli SPase (Escherichia coli, UniProt P00803); experiment: Steady state binding constant (Kd) determination by fluorescence increase
T1 construct: Full length His-tagged E. coli SPase proteins were expressed in E. coli BL21(DE3); His-tag; made in house; host or cells: E. coli BL21(DE3)
Method: (§2) Full length His-tagged E. coli SPase proteins were expressed in E. coli BL21(DE3) containing the plasmid pET23-lepB, P. A. Smith et al. Chem Biol 2010, 1223-1231. Briefly, saturated overnight cultures grown in 20 ml of Luria-Bertani medium supplemented with ampicillin were subcultures into 1.5 L of Luria-Bertani, and shaken at 37° C. until an optical density at 600 nm of 0.4-0.5 was achieved. Protein expression was induced with Isopropyl β-D-1-thiogalactopyranoside (ITPG) at a final concentration of […], and purified using nickel affinity chromatography. Full length His-tagged S. aureus SPase protein was expressed similarly from E. coli BL21(DE3) containing the plasmid pCDF1-SaSpsB or pCDF1-SaSpsB(P29S) and purified similarly to the E. coli protein with the following exceptions. SPase protein was solubilized using 300 mM NaCl, 20 mM Tris pH 8.06, 5 mM Imidazole, 10% glycerol, 1% Triton X-100, prior to purification in Ni-NTA Superflow resin and resin bound protein was washed in a similar buffer containing 1% Elugent in place of Triton X-100 prior to protein eluted in wash buffer supplemented with 300 mM imidazole. Protein purify was judged to exceed 95% by visual inspection of SDS-PAGE followed by Comassie staining. All protein concentrations were determined by BCA assay.
(§3) Steady state binding constants (Kds) of compounds were determined by measuring an increase in fluorescence (λex=280 nm, λem=405 nm) that occurs upon binding to E. coli or S. aureus SPase protein. Two-fold serial dilutions of compounds were prepared in 100% DMSO, and compounds were diluted into binding buffer consisting of 100 mM NaCl, 20 mM Tris-HCl pH 7.4, 1 mM EDTA, 1% n-octyl-3-glucopyranoside (Anatrace), and 10% glycerol, with the final DMSO concentration equal to 1%. 70 μl of the resulting solutions containing various concentrations of compound in binding buffer were aliquoted into triplicate wells of a black polystyrene 384-well plate. 5 μl of blank solution or E. coli or S. aureus protein at concentrations of 750 or 3750 nM respectively, were added to each set of wells for a given inhibitor concentration. Plates were incubated for 14 hours and fluorescence read on an EnVision Multilable plate reader (Perkin Elmer™). Differences in fluorescence values between wells with and without protein were determined and background corrected for protein auto fluorescence. The corrected fluorescence difference data was fit to the quadratic equilibrium binding curve using the non-linear regression analysis software Solver (Frontline Systems®) run in Excel 2010, (Microsoft®), using experimentally determined quantum efficiency constants to convert fluorescence into nanomoles of protein/compound complex.

S. aureus SPase = biological target: T2, S. aureus SPase (Staphylococcus aureus, UniProt P0A070); experiment: as above
T2 construct: Full length His-tagged S. aureus SPase protein was expressed similarly; His-tag; made in house; host or cells: E. coli BL21(DE3)
Method: as §2, §3

C. glutamicum DSM 44475 = experiment: In vitro antimicrobial activity, MIC by broth micro-dilution; format: cell-based; settings: Corynebacterium glutamicum, DSM44475, read-out: MIC
S. agalactiae ATCC 13813 = experiment: as above; format: cell-based; settings: Streptococcus agalactiae, ATCC13813, read-out: MIC
S. agalactiae COH-1 = experiment: as above; format: cell-based; settings: Streptococcus agalactiae, COH1; S. agalactiae COH-1; read-out: MIC
S. aureus ATCC 29213 = experiment: as above; format: cell-based; settings: Staphylococcus aureus, ATCC29213, read-out: MIC
[6] = test system: S. epidermidis ATCC 12228; experiment: as above; format: cell-based; settings: Staphylococcus epidermidis, ATCC12228, read-out: MIC
S. pneumoniae R800 = experiment: as above; format: cell-based; settings: Streptococcus pneumoniae, read-out: MIC
Summary of the method: as §1

S. pyogenes ATCC 19615 = experiment: as above; format: cell-based; settings: Streptococcus pyogenes, ATCC19615, read-out: MIC
S. pyogenes M15448 = experiment: as above; format: cell-based; settings: Streptococcus pyogenes; S. pyogenes M15448; read-out: MIC
Summary of the method: as §1

| Structure (SMILES) | MIC [1] | MIC [2] | MIC [3] | MIC [4] | MIC [5] | MIC (S. epidermidis RP62A) | MIC (S. pneumoniae D39) | Kd (E. coli SPase) | Kd (S. aureus SPase) | MIC (C. glutamicum DSM 44475) | MIC (S. agalactiae ATCC 13813) | MIC (S. agalactiae COH-1) | MIC (S. aureus ATCC 29213) | MIC [6] | MIC (S. pneumoniae R800) | MIC (S. pyogenes ATCC 19615) | MIC (S. pyogenes M15448) |
| --- | --- | --- | --- | --- | --- | --- | --- | --- | --- | --- | --- | --- | --- | --- | --- | --- | --- |
| CCCCCCCCCCCCCCCC(=O)N(C)[C@H](CO)C(=O)N[C@H](C)C(=O)NCC(=O)N(C)[C@@H]1C(=O)N[C@@H](C)C(=O)N[C@H](C(N)=O)Cc2ccc(O)c(c2)-c2cc1ccc2O [Compound 11] | 4 µg/mL (≈ 4.54 µM) | > 64 µg/mL | 32 µg/mL (≈ 36.4 µM) | > 64 µg/mL | > 64 µg/mL | 2 µg/mL (≈ 2.27 µM) | 64 µg/mL (≈ 72.7 µM) | 0.1 µM | 2.1 µM | – | – | – | – | – | – | – | – |
| CCCCCCCCCCCCCCCC(=O)N(C)[C@H](CO)C(=O)N[C@H](C)C(=O)NCC(=O)N(C)[C@@H]1C(=O)N[C@@H](C)C(=O)N[C@H](C(=O)NC)Cc2ccc(O)c(c2)-c2cc1ccc2O [Compound 12] | 8 µg/mL (≈ 8.95 µM) | > 64 µg/mL | – | 64 µg/mL (≈ 71.6 µM) | > 64 µg/mL | 2 µg/mL (≈ 2.24 µM) | > 64 µg/mL | 0.24 µM | 0.6 µM | – | – | – | – | – | – | – | – |
| CCCCCCCCCCCCCCCC(=O)N(C)[C@H](CO)C(=O)N[C@H](C)C(=O)NCC(=O)N(C)[C@@H]1C(=O)N[C@@H](C)C(=O)N[C@H](C(=O)N(C)C)Cc2ccc(O)c(c2)-c2cc1ccc2O [Compound 13] | 16 µg/mL (≈ 17.6 µM) | > 64 µg/mL | – | > 64 µg/mL | > 64 µg/mL | 64 µg/mL (≈ 70.5 µM) | > 64 µg/mL | 2 µM | > 100 µM | – | – | – | – | – | – | – | – |
| CCCCCCCCCCCCCCCC(=O)N(C)[C@H](CO)C(=O)N[C@H](C)C(=O)NCC(=O)N(C)[C@@H]1C(=O)N[C@@H](C)C(=O)N[C@H](C(=O)N[C@@H](C)C(=O)N2CCCC2C(N)=O)Cc2ccc(O)c(c2)-c2cc1ccc2O (stereo partly drawn) [Compound 14] | 16 µg/mL (≈ 15.3 µM) | > 64 µg/mL | 8 µg/mL (≈ 7.63 µM) | > 64 µg/mL | > 64 µg/mL | 2 µg/mL (≈ 1.91 µM) | 8 µg/mL (≈ 7.63 µM) | 2.8 µM | 0.6 µM | – | – | – | – | – | – | – | – |
| CCCCCCCCCCCCCCCC(=O)N(C)[C@H](CO)C(=O)N[C@H](C)C(=O)NCC(=O)N(C)[C@@H]1C(=O)N[C@@H](C)C(=O)N[C@H](C(=O)N[C@@H](C)C(N)=O)Cc2ccc(O)c(c2)-c2cc1ccc2O [Compound 15] | 8 µg/mL (≈ 8.41 µM) | > 64 µg/mL | 8 µg/mL (≈ 8.41 µM) | > 64 µg/mL | > 64 µg/mL | 2 µg/mL (≈ 2.1 µM) | 8 µg/mL (≈ 8.41 µM) | 5.8 µM | 2 µM | > 64 µg/mL | > 64 µg/mL | > 64 µg/mL | > 64 µg/mL | > 64 µg/mL | 16 µg/mL (≈ 16.8 µM) | 16 µg/mL (≈ 16.8 µM) | 16 µg/mL (≈ 16.8 µM) |
